Data as given in PubChem BioAssay (NCI).
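Five concentrations, 48 hours, 96-well plates. At the GI50, growth is halved. TGI: total growth inhibition.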

Experiments:
Assay in all cases: DTP human tumour cell line panel, 48 h
HCT-15 colon = tested on: HCT-15 colon
SK-MEL-2 melanoma = tested on: SK-MEL-2 melanoma
SF-539 CNS = tested on: SF-539 CNS
U251 CNS = tested on: U251 CNS
RXF 393 renal = tested on: RXF 393 renal
NCI-H522 lung = tested on: NCI-H522 lung
SNB-75 CNS = tested on: SNB-75 CNS
OVCAR-3 ovarian = tested on: OVCAR-3 ovarian
EKVX NSCLC = tested on: EKVX NSCLC
SF-295 CNS = tested on: SF-295 CNS

SMILES	TGI (HCT-15 colon)	TGI (SK-MEL-2 melanoma)	TGI (SF-539 CNS)	TGI (U251 CNS)	TGI (RXF 393 renal)	TGI (NCI-H522 lung)	TGI (SNB-75 CNS)	TGI (OVCAR-3 ovarian)	TGI (EKVX NSCLC)	TGI (SF-295 CNS)	GI50 (HCT-15 colon)	GI50 (SK-MEL-2 melanoma)	GI50 (SF-539 CNS)	GI50 (U251 CNS)	GI50 (RXF 393 renal)	GI50 (NCI-H522 lung)	GI50 (SNB-75 CNS)	GI50 (OVCAR-3 ovarian)	GI50 (EKVX NSCLC)	GI50 (SF-295 CNS)
OC(c1ccccc1)(c1ccccc1)c1ccccn1	> 100 µM	> 100 µM	> 100 µM	> 100 µM	> 100 µM	> 100 µM	> 100 µM	> 100 µM	> 100 µM	> 100 µM	–	–	–	–	–	–	–	–	–	–
CC/C(=N\Nc1nc2ccccc2n1C)c1ccccn1	12.9 µM	14.9 µM	1.62 µM	11 µM	1.41 µM	2.33 µM	8.84 µM	10.9 µM	7.47 µM	1.28 µM	0.0141 µM	0.589 µM	0.182 µM	0.0863 µM	0.193 µM	0.0392 µM	0.478 µM	< 0.01 µM	0.0369 µM	0.17 µM
Clc1ccc(-c2nc3c(-c4ccc(Cl)cc4)nc(-c4ccccc4)cn3c2-c2ccc(Cl)cc2)cc1	> 50 µM	> 50 µM	> 50 µM	> 50 µM	29 µM	> 50 µM	25.7 µM	> 50 µM	> 50 µM	> 50 µM	> 50 µM	26 µM	21 µM	45.2 µM	11.1 µM	44.7 µM	6.56 µM	> 50 µM	> 50 µM	12 µM
O=C(CCc1nnc2s/c(=C\c3ccccc3)c(=O)n12)Nc1cc(Cl)ccc1Cl	> 100 µM	> 100 µM	> 100 µM	> 100 µM	> 100 µM	> 100 µM	> 100 µM	> 100 µM	> 100 µM	> 100 µM	–	–	–	–	–	–	–	–	–	–
COc1c(OC(C)=O)cc2c(OC(C)=O)c1CC(C)CC(OC)C(O)C(C)/C=C(\C)C(OC(N)=O)C(OC)/C=C\C=C(/C)C(=O)N2 (centres undefined)	> 100 µM	> 100 µM	> 100 µM	> 100 µM	> 100 µM	> 41.5 µM	> 100 µM	> 100 µM	> 100 µM	> 100 µM	–	–	–	–	–	–	–	–	–	–
CC(=O)NNc1nc(C)c(C(=O)NNC(=O)C(=O)Nc2ccc(C)c(C)c2)s1	> 100 µM	> 100 µM	> 100 µM	> 100 µM	> 100 µM	46.3 µM	> 100 µM	81.1 µM	> 100 µM	> 100 µM	–	–	–	–	–	–	–	–	–	–
COc1cc(CNC(=O)/C=C/C=C/c2ccc3c(c2)OCO3)ccc1OCc1cn(-c2ccc(Cl)c(Cl)c2)nn1	2.5 µM	3.86 µM	12.3 µM	3.22 µM	3.75 µM	5.11 µM	5.99 µM	2.81 µM	13.4 µM	4.19 µM	0.519 µM	1.74 µM	3.26 µM	1.65 µM	1.69 µM	1.81 µM	1.94 µM	1.42 µM	2.95 µM	1.85 µM
Nc1ccc2c(c1)C(=O)c1ccc(F)cc1-2	> 100 µM	> 100 µM	> 100 µM	> 100 µM	> 100 µM	> 100 µM	> 100 µM	> 100 µM	> 100 µM	> 100 µM	–	–	–	–	–	–	–	–	–	–
O=C1Cc2cc(CCn3ccnc3)c(Cl)cc2N1	> 100 µM	73.6 µM	> 100 µM	> 100 µM	> 100 µM	47.9 µM	> 100 µM	78.1 µM	> 100 µM	> 100 µM	7.07 µM	5.78 µM	60 µM	8.24 µM	6.28 µM	4.74 µM	21.6 µM	9.31 µM	0.613 µM	7.87 µM
CCN1CCN(CCOc2ccc(CNc3ccc4nc(CCC5CCCCC5)[nH]c4c3)cc2)CC1	3.41 µM	3.77 µM	3 µM	3.16 µM	3.31 µM	5.95 µM	4.07 µM	4.34 µM	9.15 µM	3.95 µM	1.43 µM	1.92 µM	1.57 µM	1.49 µM	1.3 µM	2.44 µM	1.66 µM	1.89 µM	2.25 µM	1.99 µM
Cn1cc(-c2csc(-c3c[nH]c4ncccc34)n2)c2cc(Br)cnc21	> 100 µM	66.7 µM	> 100 µM	> 100 µM	8.63 µM	> 100 µM	7.35 µM	> 100 µM	> 100 µM	18.8 µM	13.7 µM	19.8 µM	27.7 µM	2.7 µM	2.05 µM	4.86 µM	2.18 µM	2.91 µM	1.27 µM	3.01 µM
CCCc1cc(=O)oc2c(C(=O)CC(C)C)c(O)c(CC=C(C)C)c(O)c12	> 50 µM	49 µM	44.2 µM	> 50 µM	45.2 µM	> 50 µM	41.8 µM	> 50 µM	> 50 µM	31.3 µM	5.81 µM	9.71 µM	9.8 µM	9.19 µM	13.7 µM	8.17 µM	10.7 µM	3.53 µM	9.22 µM	7.81 µM
COc1cc2c(cc1OC)C(CCc1ccc(Cl)cc1)N(C)CC2 (centres undefined)	> 100 µM	37.1 µM	39 µM	64.3 µM	58.3 µM	38.6 µM	43.5 µM	> 100 µM	81 µM	27 µM	30.2 µM	19.7 µM	17.1 µM	22.8 µM	17.8 µM	20 µM	11.9 µM	33.3 µM	16.7 µM	9.32 µM
O=c1[nH]c(=S)[nH]c2c1sc(=S)n2-c1ccccc1	> 100 µM	> 100 µM	> 100 µM	> 100 µM	> 100 µM	> 100 µM	> 100 µM	> 100 µM	> 100 µM	> 100 µM	–	–	–	–	–	–	–	–	–	–
CCCOc1ccc(/C(Cl)=C(\C=O)c2ccc(OC)c(OC)c2)cc1OCCC	32.8 µM	32 µM	55.1 µM	33.9 µM	25.3 µM	6.12 µM	75.3 µM	> 100 µM	50.4 µM	88.3 µM	–	–	–	–	–	–	–	–	–	–
Cc1cccc(CN(C)c2ccc(CO)c(Cl)c2)c1	> 100 µM	36 µM	> 77.3 µM	43.6 µM	27.8 µM	57.8 µM	80 µM	17 µM	90.1 µM	46.8 µM	19.8 µM	8.54 µM	26.8 µM	5.07 µM	9.52 µM	17.6 µM	18.8 µM	4.2 µM	22.6 µM	4.87 µM
C=C1CC[C@@H]2C(C)(C)[C@@H](O)CC[C@@]2(C)[C@@H]1COc1ccc2ccc(=O)oc2c1	26.8 µM	32.8 µM	28.5 µM	24.8 µM	21.9 µM	36.1 µM	32.1 µM	29.1 µM	25.6 µM	22.9 µM	11.5 µM	15.5 µM	14.7 µM	9.62 µM	7.41 µM	13.1 µM	10.9 µM	13 µM	10.6 µM	10.5 µM
C=C1C(=O)OC2CCCCC3OC3C12 (centres undefined)	19.9 µM	27.5 µM	28.1 µM	23 µM	30.1 µM	3.91 µM	59.1 µM	26.5 µM	34.6 µM	48.6 µM	–	–	–	–	–	–	–	–	–	–
CCOP(=O)(CCP(=O)(OCC)OCC)OCC.C[CH2][Sn]([Cl])([Cl])[CH2]C	> 78.7 µM	43.1 µM	52.1 µM	> 69.3 µM	30.1 µM	4.97 µM	69.3 µM	> 100 µM	> 100 µM	> 100 µM	51.2 µM	18.9 µM	34.9 µM	37.9 µM	15.3 µM	1.64 µM	26.4 µM	> 84.3 µM	> 100 µM	> 81.8 µM
COc1ccc(Nc2c3ccccc3nc3c2c2ccccc2n3C)cc1	> 100 µM	> 100 µM	27.5 µM	> 100 µM	> 100 µM	> 100 µM	> 100 µM	> 100 µM	60.3 µM	> 100 µM	11.1 µM	57.6 µM	8.78 µM	36.5 µM	64.9 µM	78.3 µM	> 100 µM	23.5 µM	7.91 µM	22.3 µM
C[N+](C)(C)CCOP(=O)(O)OP(=O)([O-])OCC1CCC(n2ccc(N)nc2=O)O1 (centres undefined)	> 100 µM	> 100 µM	> 100 µM	> 100 µM	> 100 µM	> 100 µM	> 100 µM	> 100 µM	> 100 µM	> 100 µM	–	–	–	–	–	–	–	–	–	–
Cc1c2ccccc2c(C)c2c3c(ccc12)C(=O)C=CC3=O	42.4 µM	> 84.6 µM	> 100 µM	> 100 µM	27.4 µM	28 µM	> 100 µM	38.3 µM	> 85 µM	> 31.6 µM	–	–	–	–	–	–	–	–	–	–
CC(C)=CC/C=C(/C)[C@H]1CC[C@]2(C)[C@@H]1CC[C@@H]1[C@@]3(C)CCC(=O)NC(C)(C)[C@@H]3CC[C@]12C	32.1 µM	82.8 µM	30.5 µM	36.5 µM	32.4 µM	40.2 µM	55.1 µM	34.1 µM	84 µM	36.6 µM	15.4 µM	27.6 µM	16.5 µM	17.2 µM	16.8 µM	18.4 µM	20.9 µM	18.3 µM	27.7 µM	18.7 µM
CCN1CCC[C@H]1c1cc(O)c2c(c1OC)C[C@H]1C[C@H]3[C@H](N)C(=O)C(C(N)=O)=C(O)[C@@]3(O)C(=O)C1=C2O	5.17 µM	0.158 µM	0.593 µM	1.88 µM	0.247 µM	0.799 µM	1.58 µM	3.17 µM	3.54 µM	3.8 µM	0.0547 µM	0.0336 µM	0.0634 µM	0.0442 µM	0.0312 µM	0.0562 µM	0.0609 µM	0.13 µM	0.203 µM	0.208 µM
O=C(CC(=O)N1N=C(n2ccc3ccccc32)CC1c1ccccc1)Nc1cccc(Cl)c1 (centres undefined)	> 100 µM	> 100 µM	> 100 µM	> 100 µM	> 100 µM	> 100 µM	> 100 µM	> 100 µM	> 100 µM	> 100 µM	–	–	–	–	–	–	–	–	–	–
CC(=O)OC1(C#N)CC2OC1C1C2N1C(=O)c1ccccc1 (centres undefined)	> 100 µM	> 100 µM	> 100 µM	> 100 µM	> 100 µM	> 100 µM	> 100 µM	–	> 100 µM	–	–	–	–	–	–	–	–	–	–	–
CN(C)CC(C(=O)c1ccccc1)c1ccccc1 (centres undefined)	2.54 µM	7.87 µM	5.04 µM	3.13 µM	4.46 µM	2.79 µM	14.4 µM	2.5 µM	27.1 µM	18.2 µM	1.11 µM	3.35 µM	2.25 µM	1.56 µM	1.69 µM	1.3 µM	3.54 µM	1.24 µM	10.2 µM	4.52 µM
Nc1nc(-c2ccccc2)c(-c2ccccc2)c(-c2nc(N)nc(-c3ccccc3)c2-c2ccccc2)n1	> 100 µM	> 100 µM	> 100 µM	> 100 µM	> 100 µM	> 100 µM	> 100 µM	> 100 µM	> 100 µM	> 100 µM	–	–	–	–	–	–	–	–	–	–
COc1cc(/C=C/C(=O)C(=Cc2ccc(F)c(F)c2)C(=O)/C=C/c2ccc(O)c(OC)c2)ccc1O	10.1 µM	3.58 µM	13.6 µM	3.51 µM	3.2 µM	3.12 µM	5.97 µM	4.78 µM	18.3 µM	25.1 µM	2.82 µM	1.81 µM	3.26 µM	1.7 µM	1.74 µM	1.45 µM	1.91 µM	1.91 µM	4.61 µM	3.63 µM
Cc1ccc(/C=C(\C#N)n2nnc3cc(Cl)c(Cl)cc32)cc1	5.99 µM	> 100 µM	6.6 µM	–	5.69 µM	14.9 µM	9.74 µM	12.8 µM	> 100 µM	–	1.73 µM	3.96 µM	2.53 µM	–	2.01 µM	2.72 µM	1.57 µM	2.93 µM	3.48 µM	–
